Assay type in all cases: functional, cell-based
In one experiment the test system is HepG2. Nature of the experiment: Cytotoxicity activity against human HepG2 cells assessed as reduction in cell viability after 72 hrs by MTT assay. Particulars: HepG2, 72 h. For orientation: Formazan colour is commonly taken as a measure of viable cells.
The test system of a further experiment is HeLa S3. Nature of the experiment: Cytotoxicity activity against human HeLa S3 cells assessed as reduction in cell viability after 72 hrs by MTT assay. The following applies: HeLa S3, 72 h.
The test system of a further experiment is MCF7. Nature of the experiment: Cytotoxicity activity against human MCF7 cells assessed as reduction in cell viability after 72 hrs by MTT assay. The following applies: MCF7, 72 h.
In another experiment the test system is HT-29. Nature of the experiment: Cytotoxicity activity against human HT-29 cells assessed as reduction in cell viability after 72 hrs by MTT assay. Particulars: HT-29, 72 h.
The test system of a further experiment is KB. Briefly: Cytotoxicity activity against human KB cells assessed as reduction in cell viability after 72 hrs by MTT assay.

From ChEMBL document CHEMBL4665689, “Picrorhizones A-H, Polyprenylated Benzoylphloroglucinols from the Stem Bark of Garcinia picrorhiza” (J Nat Prod, 2020) come the findings set out here.

What is called IC50 is the midpoint of a concentration-inhibition curve. `C=C(C)[C@H]1C[C@@H](C[C@@]23C[C@@H](/C=C/C(C)C)C(C)(C)[C@@](CC=C(C)C)(C2=O)c2oc4cc(O)c(O)cc4c(=O)c2C3=O)C1(C)C`: the IC50 in the experiment on HepG2 is more than 10 µM; with HeLa S3, 6.2 µM; with MCF7, more than 10 µM; in the experiment with HT-29 it was more than 10 µM; in the experiment with KB, 5.2 µM.

As for `CC(=O)[C@H]1C[C@@H](C[C@]23C[C@@H](/C=C/C(C)C)C(C)(C)[C@](CC=C(C)C)(C(=O)C(C(=O)c4ccc(O)c(O)c4)=C2O)C3=O)C1(C)C`, the IC50 in the experiment with HepG2 is more than 10 µM; with HeLa S3 it was more than 10 µM; in the experiment with MCF7 it was more than 10 µM; with HT-29, more than 10 µM; in the experiment on KB, 7.4 µM.

Consider `C=C(C)[C@H]1C[C@@H](C[C@]23C[C@@H](/C=C/C(C)C)C(C)(C)[C@@]4(C[C@@H](C(C)(C)O)OC4=C(C(=O)c4ccc(O)c(O)c4)C2=O)C3=O)C1(C)C`, for which the IC50 with HepG2 is 9.4 µM; in the experiment on HeLa S3, 6 µM; in the experiment on MCF7, 9.3 µM; in the experiment with HT-29, more than 10 µM; in the experiment with KB, 5.9 µM.

In the case of `COc1cccc2c1C(=O)c1c(O)c3c(c(O)c1C2=O)C[C@@](O)(C(=O)CO)C[C@@H]3O[C@H]1C[C@H](N)[C@H](O)[C@H](C)O1` [DOXORUBICIN], the IC50 with HepG2 was determined as 1 µM; with HeLa S3 it was 0.15 µM; in the experiment with HT-29 it was 0.59 µM; in the experiment on KB it was 0.02 µM.

On to `CC(C)=CC[C@@H]1C[C@]23C[C@@H](CC=C(C)C)C(C)(C)[C@](CC=C(C)C)(C(=O)C(C(=O)c4ccc(O)c(O)c4)=C2OC1(C)C)C3=O`, for which the half-maximal inhibitory concentration (IC50) was more than 10 µM in the experiment on HepG2; more than 10 µM with HeLa S3; 7.2 µM in the experiment with MCF7; more than 10 µM in the experiment on HT-29; 5.3 µM with KB.

In the case of `C=C(C)[C@H]1C[C@@H](C[C@]23C[C@@H](/C=C/C(C)C)C(C)(C)[C@](CC=C(C)C)(C(=O)C(C(=O)c4ccc(O)c(O)c4)=C2O)C3=O)C1(C)C`, the IC50 was more than 10 µM in the experiment on HepG2; 7.2 µM with HeLa S3; more than 10 µM in the experiment on MCF7; more than 10 µM in the experiment on HT-29; 7 µM in the experiment with KB.

Take `C=C(C)[C@H]1C[C@@H](C[C@]23C[C@@H](/C=C/C(C)C)C(C)(C)[C@](CC=C(C)C)(C(=O)C(C(=O)c4ccccc4)=C2O)C3=O)C1(C)C`: the IC50 in the experiment on HepG2 was more than 10 µM; in the experiment with HeLa S3, more than 10 µM; with MCF7, more than 10 µM; in the experiment with HT-29, more than 10 µM; with KB, 9.9 µM.

On to `C=C(C)[C@H]1C[C@@H](C[C@]23C[C@@H](/C=C/C(C)C)C(C)(C)[C@](C/C=C(\C)CO)(C(=O)C(C(=O)c4ccc(O)c(O)c4)=C2O)C3=O)C1(C)C`, for which the IC50 with HeLa S3 is 8 µM; with KB, more than 10 µM.
